This experiment addresses T1, mKv1.3 (Mus musculus, UniProt P16390).
T1 construct: expressed in transfected cells
Description: Whole-cell patch-clamp block of Kv1.3 currents. The experiment is classed as cell-based. The following applies: L929 mouse fibroblasts stably expressing mKv1.3, room temperature, peak current at 40 mV, Hill fit, n = 3 cells per concentration, read-out: IC50 against Kv1.3. As for the experimental part: L929 mouse fibroblast cells stably expressing mKv1.3[32] were gifts from Dr. K. George Chandy (University of California, Irvine). They were maintained in DMEM medium (Invitrogen, Carlsbad, CA) supplemented with 100 IU/mL penicillin, […] streptomycin, 2 mM L-glutamine, 10% heat-inactivated foetal bovine serum, and 0.5 mg/mL G418 (EMD Chemicals, Gibbstown, NJ).
Electrophysiology experiments were conducted at room temperature in the whole-cell configuration of the patch-clamp technique on a Port-a-Patch setup (Nanion, North Brunswick, NJ) linked to a HEKA EPC10USB amplifier (HEKA Instruments, Bellmore, NY). A holding potential of −80 mV was used for all recordings. Pipette resistances averaged 2.0 MΩ when filled with internal solution containing (in mM): 145 KF, 10 HEPES, 10 EGTA, and 2 MgCl2, pH 7.2, 290 mOsm. Kv currents were elicited every 30 s by 200-ms depolarising pulses from a holding potential of −80 mV to 40 mV. Kv1.3 currents were recorded in normal Ringer solution containing (in mM): 160 NaCl, 4.5 KCl, 2 CaCl2, 1 MgCl2, and 10 HEPES, pH 7.2, 300 mOsm. IC50 values and Hill coefficients were determined by fitting the Hill equation to the reduction of peak current by the drug at 40 mV.
Figure S2. […] (a) Whole-cell Kv1.3 currents measured by whole-cell patch-clamp in stably transfected L929 fibroblasts before (control) and after perfusion of 10 pM and 100 nM NOTA-HsTX1[R14A]. […]
(In general: In patch-clamp work, channel activity is measured electrically.)

Structures are written as SMILES.

A word on the IC50: it is the concentration needed to halve the response being measured.

T1 sequence (P16390 whole entry): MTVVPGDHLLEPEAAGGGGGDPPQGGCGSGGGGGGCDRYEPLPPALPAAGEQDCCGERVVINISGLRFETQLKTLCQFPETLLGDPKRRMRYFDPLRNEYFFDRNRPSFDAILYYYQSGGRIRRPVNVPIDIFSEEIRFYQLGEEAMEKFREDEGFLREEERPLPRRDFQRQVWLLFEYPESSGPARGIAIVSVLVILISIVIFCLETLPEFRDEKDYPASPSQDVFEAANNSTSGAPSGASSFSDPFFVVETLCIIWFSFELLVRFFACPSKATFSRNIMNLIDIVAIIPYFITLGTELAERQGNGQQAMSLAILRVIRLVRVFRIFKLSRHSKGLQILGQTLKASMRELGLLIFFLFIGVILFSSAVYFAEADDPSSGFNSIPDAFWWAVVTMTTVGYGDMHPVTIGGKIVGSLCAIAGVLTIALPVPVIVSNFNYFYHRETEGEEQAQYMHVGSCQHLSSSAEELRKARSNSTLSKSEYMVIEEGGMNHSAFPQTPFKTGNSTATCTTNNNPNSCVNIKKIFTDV

As for `CSCC[C@@H]1NC(=O)[C@@H]2CSSC[C@H](NC(=O)[C@H](CO)NC(=O)[C@H](C)NC(=O)COCCOCCNC(=O)CN3CCN(CC(=O)O)CCN(CC(=O)O)CC3)C(=O)N[C@@H](CCCNC(=N)N)C(=O)N[C@@H]([C@@H](C)O)C(=O)N3CCC[C@H]3C(=O)N[C@@H](CCCCN)C(=O)N[C@@H](CC(=O)O)C(=O)N[C@H]3CSSC[C@H](NC(=O)[C@H](CCCCN)NC(=O)[C@H](CCCNC(=N)N)NC(=O)[C@H](CC(N)=O)NC1=O)C(=O)N[C@@H](CCCCN)C(=O)N[C@H]1CSSC[C@H](NC(=O)[C@@H]4CCCN4C(=O)[C@H](CC(=O)O)NC(=O)[C@H](C)NC3=O)C(=O)N[C@@H](C)C(=O)N[C@@H](CCCCN)C(=O)N[C@@H](CCC(=O)O)C(=O)N[C@@H]([C@@H](C)O)C(=O)NCC(=O)N[C@@H](CSSC[C@@H](C(N)=O)NC(=O)[C@H](CCCNC(=N)N)NC(=O)[C@H](CC(N)=O)NC1=O)C(=O)N1CCC[C@H]1C(=O)N[C@@H](Cc1ccc(O)cc1)C(=O)NCC(=O)N[C@@H](CCCCN)C(=O)N2` [NOTA-HsTX1[R14A]], the concentration for half-maximal inhibition (IC50) worked out at 0.068 ± 0.012 nM.

Values taken from publication PMC5473807, “Distribution and kinetics of the Kv1.3-blocking peptide HsTX1[R14A] in experimental rats” (Scientific Reports, 2017).
